Source: ChEMBL document CHEMBL1134839, “Methylene-gem-difluorocyclopropane analogues of nucleosides: synthesis, cyclopropene-methylenecyclopropane rearrangement, and biological activity” (2001)

What was measured:
[1] = The compound was tested for antitumor activity against human tumor H15 cells; format: functional
[2] = The compound was tested for antitumor activity against L1210 cells; format: functional, Mus musculus
[3] = The compound was tested for antitumor activity against normal cells (fibroblast); format: functional, Homo sapiens
[4] = The compound was tested for antitumor activity against human colon tumor H116 cells; format: functional
[5] = The compound was tested for antitumor activity against mouse tumor M17/Adr cells; format: functional
MC-38 = assay: The compound was tested for antitumor activity against mouse tumor C38 cells; format: functional

Row | Compound | Activity [1] | Activity [2] | Activity [3] | Activity [4] | Activity [5] | Activity (MC-38)
1 | Nc1ncnc2c1ncn2/C=C1\C(CO)C1(F)F (configuration not stated) | 300 | 420 | 130 | 200 | 370 | 470
2 | Nc1ncnc2c1ncn2/C=C1/C(CO)C1(F)F (configuration not stated) | 550 | 660 | 500 | 550 | 590 | 580
3 | Nc1ncnc2c1ncn2/C=C1/CC1CO (configuration not stated) |  | 570 | 130 | 160 | 460 | 600
